Values quoted from earlier work as cited in patent US20170246163A1, “METHODS OF IMPROVING BALANCE, GAIT OR BOTH IN PATIENTS WITH NEUROLOGICAL DISEASE” (priority 2016, published 2017).
Like-named read-outs stand apart in the source and are kept apart here.

Experiments:
[1] = system: subjects with mild-to-moderate Alzheimer's disease; details: 48 weeks
[2] = system: PD patients experiencing frequent falls; details: crossover versus placebo, p<0.05
[3] = system: subjects with moderate Alzheimer's disease; details: Phase 2
[4] = system: patients with either PD, PD-MCI, or PDD; details: 176 patients with PD, 12 months, p<0.01

## COc1cc2c(cc1OC)C(=O)C(CC1CCN(Cc3ccccc3)CC1)C2 (stereo not drawn) [donepezil]
[1]; donepezil alone
  subjects who experienced falls: 6%
[2]
  falls reported while on treatment: 0.13 falls/day
[3]; donepezil alone
  subjects who experienced falls: 6%

## Fc1ccc2c(CCNCc3cccc(OCC(F)(F)C(F)F)c3)c[nH]c2c1 [idalopirdine]
[3]; on top of donepezil
  subjects who experienced falls: 2%

## O=S(=O)(c1ccccc1)c1cnc2c(N3CCNCC3)cccc2c1 [intepirdine, 3-phenylsulfonyl-8-piperazinyl-1yl-quinoline]
[1]; on top of donepezil
  subjects who experienced falls: 2%

## CCN(C)C(=O)Oc1cccc([C@H](C)N(C)C)c1 [rivastigmine]
[4]
  lowering of the incidence of falls relative to baseline: 50%
